Common to all, as to experiment: relative viability (nuclei count vs DMSO), 5 days (fraction); higher = more cells survive
Compound in experiment [1]: CS(=O)(=O)c1ccc(C(=O)Nc2ccc(Cl)c(-c3ccccn3)c2)c(Cl)c1 [Vismodegib] + Nc1ncn([C@H]2C[C@H](O)[C@@H](CO)O2)c(=O)n1 [Decitabine] (partner 2 µM)
The method, boiled down:
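Cells from lung cancer lines were seeded into 1536-well plates and, one day later, dosed by pin tool. Treatments were either a single drug or a fixed dose of an anchor drug with five library-drug doses (not always all listed) in √10 steps. After 5 days, nuclei were stained in a one-step fixation (final 0.05% Triton X-100, 1% formaldehyde, 1 ug/ml Hoechst) and counted on 4× images, and relative viability is the treated-to-vehicle nuclei ratio, as the median of duplicate plates.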

Compound in experiment [2]: CS(=O)(=O)c1ccc(C(=O)Nc2ccc(Cl)c(-c3ccccn3)c2)c(Cl)c1 [Vismodegib]
The gist of the method: (§1)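 Lung cancer cell lines in 1536-well plates were kept overnight at 37 °C, then pinned with five library-drug doses (not always all listed) spaced by √10 on vehicle-anchored plates. After 5 days without medium change, cells were fixed, permeabilised and Hoechst-stained in one step, imaged at 4×, and nuclei were counted with MetaXpress. Viability is treated-well nuclei divided by vehicle-well nuclei, taken as the median over plates. Plates passed only with control CV below 25% and at least one doubling.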

Compound in experiment [3]: N#CC[C@H](C1CCCC1)n1cc(-c2ncnc3[nH]ccc23)cn1 [Ruxolitinib]
The method, boiled down: as §1

Compound in experiment [4]: CS(=O)(=O)c1ccc(-c2cnc(N)c(C(=O)Nc3ccccc3)n2)cc1 [VE-821]
The method, boiled down:
as §1

With UMC-11, the relative viability amounted to 0.623 in experiment [1] (first compound 0.08 µM); 0.579 in experiment [1] (first compound 0.253 µM); 0.489 in experiment [1] (first compound 0.8 µM); 0.457 in experiment [1] (first compound 2.53 µM); 0.53 in experiment [1] (first compound 8 µM); 0.897 in experiment [2] (0.08 µM). Also, the relative viability is 0.919 in experiment [2] (0.253 µM); 1 in experiment [2] (0.8 µM); 0.947 in experiment [2] (2.53 µM); 0.834 in experiment [2] (8 µM); 0.954 in experiment [3] (0.08 µM); 0.999 in experiment [3] (0.253 µM). For the same cell line, the relative viability is 1.1 in experiment [3] (0.8 µM); 1.13 in experiment [3] (2.53 µM); 1.04 in experiment [3] (8 µM); 1.08 in experiment [4] (0.08 µM); 0.915 in experiment [4] (0.253 µM); 0.948 in experiment [4] (0.8 µM). The relative viability worked out at 1.04 in experiment [4] (2.53 µM) and 0.531 in experiment [4] (8 µM).

These data come from the supplement of paper PMC10307832.
